Experimental data reported in US8548786B2, “Neuronal avalanche assay” (priority 2005, dated 2013).

Legend:
[1] = test system: acute somatosensory cortex slices; assay: Neuronal avalanche induction in acute somatosensory cortex slices; type: cell-based, rat; conditions: 3 μM SKF38393 + 3 μM NMDA
[2] = test system: acute slices of rat medial prefrontal cortex (mPFC); assay: Neuronal avalanche (NAS) assay, microelectrode array LFP recording in acute mPFC slices;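 also: 60-electrode array recordings, low-pass filtered at 200 Hz and sampled at 1 kHz, nLFPs detected below −3 SD of electrode noise, avalanches as runs of active bins between silent bins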
Procedure: Continuous extracellular signals v(t) can be recorded between 0.1 Hz and 3000 Hz, low-pass filtered at 200 Hz (Butterfly-filter, Multichannel Systems), digitised at a rate of 1 kHz (Δt=1 ms) and stored. For each electrode k (k=[1, nelec], nelec=60), the electrode noise of v(t) can be estimated by calculating the mean and standard deviation (SD) of v(t) from the total duration of the recording, Ttot, which can range, for example, between 40-60 min. […] Negative LFP peaks (nLFPs) at electrode k can be detected by negative threshold crossing at −3 SD of electrode noise and can be characterized by the time and absolute amplitude of the negative LFP peak, A^k(ti), before v(t) returned to threshold. More precisely, at a given temporal resolution Δt, nLFPs at electrode k can be represented by a vector of length nmax, where nmax is an integer value for which Ttot=nmax·Δt. This vector can contain zeros, except for positions ti=i·Δt, iε[1, . . . , nmax,] with values A^k(ti) in μV.
A neuronal avalanche is a sequence of consecutive time bins of width Δt with at least one nLFP, which is preceded and terminated by at least one time bin with no activity (FIG. 3A). The absence of activity for a period of Δt thus indicates the end of an avalanche. If the decision of whether an avalanche has ended is made too early (Δt too short), avalanches will be terminated prematurely; if the Δt chosen is too long, avalanches will be falsely concatenated. If avalanches did simply propagate like a wave, an approximation for Δt (Δtavg) could be obtained by averaging the time between one nLFP at one electrode and the next nLFP at neighbouring electrodes only. Because nLFPs in avalanches occur in irregular patterns across electrodes on the array, a pair wise approximation can be used in order to assess the average time that is required for nLFPs to propagate between electrodes.
In order to calculate Δtavg, the distribution of time intervals T for successive nLFPs on the array can be obtained. Starting with the first nLFP, e.g. A^k(ti) on electrode k at time ti, the next occurrence of an nLFP on the array can be searched for, e.g. A^l(tj) on electrode l at time tj, and calculated the time interval Tm-Δt^k,l, where m=(tj−ti)/Δt. This process can be repeated for all occurrences of nLFPs on electrode k and for all electrodes. The resulting values can be combined into one density distribution P(TmΔt), which captures how often successive nLFPs occurred with a particular delay m·Δt on the array irrespective of their spatial location. Consequently, the average value of T provides an approximation for Δtavg, the average time to wait before making a decision whether an nLFP propagated on the array. However, this interval distribution is highly skewed, particularly when one compares the last nLFP with the first nLFP in successive avalanches that are separated by long times. In order to exclude time intervals from successive nLFPs that are barely correlated, a cut-off time τmax can be calculated for which the average crosscorrelation function (ccf) for pair wise electrode comparisons Rccf(τ) had decayed to negligible values. The ccf between electrodes k, l (Rccf^k,l(τ)) can be calculated as
Because the exemplary maximal sampling rate was 1 kHz, the actual Δt^avg to calculate avalanches can be taken as the nearest multiple of Δt=1 ms. In short, after Δtavg was calculated for a particular network and experimental condition, the extracellular signals v(t) can be re-sampled at the new temporal resolution of Δtavg. Time and amplitude of nLFP peaks can be extracted as A^k(ti), where ti=i·Δtavg, iε[1, n′max] and Ttot=n′max·Δtavg. Avalanches can be determined on the downsampled data set at bin width Δtavg.
Avalanche sizes can be calculated in two different ways (see also FIG. 3A).

Cl.Oc1cc2c(cc1O)C(c1ccccc1)CNCC2 (racemic) [SKF38393]
avalanche induction and layer localisation [1]: induced neuronal avalanches primarily in superficial layers | average nLFP peak amplitude ([2]; 3 μM SKF38393 + 3 μM NMDA): 6.62±0.01 mV | Δtavg ([2]; 3 μM SKF38393 + 3 μM NMDA): 3.3±0.2 | total activity at slope α ~−1.5 compared to dopamine ([2]; 3 μM SKF38393 + 3 μM NMDA vs 30 μM dopamine, p=0.007): significantly reduced level of total activity compared to dopamine | slope αLFP after rescue by added NMDA ([2]; 3 μM SKF38393 alone first, then 3 μM NMDA added): −1.55±0.07 | induction of nLFPs or avalanches ([2]; 3 μM SKF38393 alone, without NMDA): did not induce nLFPs or avalanches | slope α of avalanche size distribution ([2]; SKF38393 higher or lower than 3 μM (0.3-300 μM range), + 3 μM NMDA): < −1.5
